Reference: ChEMBL document CHEMBL2177051
Calls of active or inactive are those of the source. The rule behind the calls is not given here.

Experiments:
Conditions in all cases: Homo sapiens
HEK293 [1] = test: Inhibition of proteasome beta1 in HEK cell lysates at 1 to 100 uM after 1 hr by MV151 competitive SDS-PAGE analysis
HEK293 [2] = test: Inhibition of proteasome beta2 in HEK cell lysates at 1 to 100 uM after 1 hr by MV151 competitive SDS-PAGE analysis
HEK293 [3] = test: Inhibition of proteasome beta5 in HEK cell lysates at 1 to 100 uM after 1 hr by MV151 competitive SDS-PAGE analysis
HEK293 [4] = test: Inhibition of proteasome beta2 in HEK cell at 50 uM after 3 hrs by MV151 competitive SDS-PAGE analysis; assay type: cell-based
HEK293 [5] = test: Inhibition of proteasome beta1 in HEK cell at 50 uM after 3 hrs by MV151 competitive SDS-PAGE analysis; assay type: cell-based
HEK293 [6] = test: Inhibition of proteasome beta5 in HEK cell at 5 uM after 3 hrs by MV151 competitive SDS-PAGE analysis; assay type: cell-based

SMILES | inhibition (HEK293 [1]) | inhibition (HEK293 [2]) | inhibition (HEK293 [3]) | inhibition (HEK293 [4]) | inhibition (HEK293 [5]) | inhibition (HEK293 [6])
CC(C)C[C@@H](CS(=O)(=O)F)NC(=O)[C@H](CC(C)C)NC(=O)[C@@H](N)CC(C)C | Active | Active | Active | – | – | –
CC(C)C[C@@H](CS(=O)(=O)F)NC(=O)[C@H](CC(C)C)NC(=O)[C@H](CC(C)C)NC(=O)OCc1ccccc1 | Active | Active | Active | – | – | –
CC[C@H](C)[C@H](N)C(=O)N[C@H](C(=O)N[C@H](C(=O)N[C@@H](CC(C)C)CS(=O)(=O)F)[C@@H](C)OCc1ccccc1)[C@@H](C)CC | Active | Active | Active | – | – | –
CC(C)C[C@@H](CS(=O)(=O)F)NC(=O)[C@@H](N)Cc1ccccc1 | inactive | inactive | inactive | – | – | –
CC[C@H](C)[C@H](NC(C)=O)C(=O)N[C@H](C(=O)N[C@H](C(=O)N[C@@H](CC(C)C)CS(=O)(=O)F)[C@@H](C)OCc1ccccc1)[C@@H](C)CC | Active | Active | Active | – | – | –
CC(C)C[C@@H](CS(=O)(=O)F)NC(=O)[C@H](CC(C)C)NC(=O)[C@H](CC(C)C)NC(=O)[C@@H](N)CC(C)C | Active | Active | Active | – | – | –
CC(=O)N[C@@H](CC(C)C)C(=O)N[C@@H](CC(C)C)C(=O)N[C@@H](CC(C)C)C(=O)N[C@@H](CC(C)C)CS(=O)(=O)F | Active | Active | Active | – | – | –
CC(C)C[C@@H](CS(=O)(=O)F)NC(=O)[C@H](CC(C)C)NC(=O)[C@H](CC(C)C)NC(=O)[C@H](Cc1ccccc1)N=[N+]=[N-] | Active | Active | Active | – | – | –
CC[C@H](C)[C@H](NC(=O)OC(C)(C)C)C(=O)N[C@H](C(=O)N[C@H](C(=O)N[C@@H](CC(C)C)CS(=O)(=O)F)[C@@H](C)OCc1ccccc1)[C@@H](C)CC | Active | Active | Active | – | – | –
CC[C@H](C)[C@H](NC(=O)CN=[N+]=[N-])C(=O)N[C@H](C(=O)N[C@H](C(=O)N[C@@H](CC(C)C)CS(=O)(=O)F)[C@@H](C)OC(C)=O)[C@@H](C)CC | Active | Active | Active | – | – | –
CC[C@H](C)[C@H](NC(C)=O)C(=O)N[C@H](C(=O)N[C@H](C(=O)N[C@@H](CC(C)C)CS(=O)(=O)F)[C@@H](C)O)[C@@H](C)CC | Active | Active | Active | – | – | –
CC(C)C[C@@H](CS(=O)(=O)F)NC(=O)[C@H](CC(C)C)NC(=O)[C@H](CC(C)C)NC(=O)OC(C)(C)C | Active | Active | Active | – | – | –
CC(C)C[C@@H](CS(=O)(=O)F)NC(=O)[C@H](Cc1ccccc1)NC(=O)c1cnccn1 | inactive | inactive | inactive | – | – | –
CC[C@H](C)[C@H](N)C(=O)N[C@H](C(=O)N[C@@H](CC(C)C)CS(=O)(=O)F)[C@@H](C)O | Active | Active | Active | – | – | –
CC[C@H](C)[C@H](N)C(=O)N[C@H](C(=O)N[C@@H](CC(C)C)CS(=O)(=O)F)[C@@H](C)OCc1ccccc1 | Active | Active | Active | – | – | –
CC(C)C[C@@H](CS(=O)(=O)F)NC(=O)[C@@H](N)[C@@H](C)OCc1ccccc1 | inactive | inactive | inactive | – | – | –
CC[C@H](C)[C@H](NC(=O)OC(C)(C)C)C(=O)N[C@H](C(=O)N[C@@H](CC(C)C)CS(=O)(=O)F)[C@@H](C)OCc1ccccc1 | Active | Active | Active | – | – | –
CC[C@H](C)[C@H](NC(=O)CN=[N+]=[N-])C(=O)N[C@H](C(=O)N[C@H](C(=O)N[C@@H](CC(C)C)CS(=O)(=O)F)[C@@H](C)O)[C@@H](C)CC | Active | Active | Active | – | – | –
CC(C)C[C@@H](CS(=O)(=O)F)NC(=O)[C@H](CC(C)C)NC(=O)[C@H](CC(C)C)NC(=O)[C@H](CC(C)C)NC(=O)OCc1ccccc1 | Active | Active | Active | Active | Active | Active
CC[C@H](C)[C@H](N)C(=O)N[C@H](C(=O)N[C@H](C(=O)N[C@@H](CC(C)C)CS(=O)(=O)F)[C@@H](C)O)[C@@H](C)CC | Active | Active | Active | – | – | –
